The source of these data is publication PMC10527105, “Chirality Matters: Fine-Tuning of Novel Monoamine Reuptake Inhibitors Selectivity through Manipulation of Stereochemistry” (Biomolecules, 2023).

Common to all, as to assay type: cell-based
In test [1] the target is T1, human serotonin transporter/SLC6A4 (SERT) (Homo sapiens, UniProt P31645).
T1 construct: expressed in transfected cells; host or cells: HEK293
In words: Cellular uptake experiments: [3H]-serotonin reuptake inhibition in transporter-expressing HEK293 cells. As to conditions: for IC50: cells stably expressing SERT, [3H]-serotonin 1 µM, screening cut-off 50 µM; for activity on SERT (reuptake inhibition), in words: at 50 µM / tested concentration range. How it is done: (§1) Cell culture. Human embryonic kidney (HEK) 293 or SK-N-MC (human neuroblastoma) cells were grown in minimum essential medium with Earle’s salts and L-glutamine, 10% heat-inactivated fetal bovine serum, and 50 mg/L gentamicin. Cells were grown in 100- or 60-mm diameter tissue culture dishes (polystyrene, Falcon) at 37 °C under an atmosphere of 5% CO2/95% air. The human dopamine transporter/SLC6A3 (DAT), noradrenaline transporter/SLC6A2 (NET), or human serotonin transporter/SLC6A4 (SERT) cDNA was stably expressed using methods as described previously.
(§2) Cellular uptake experiments. The transporter-expressing HEK293 cells were seeded in poly-D-lysine-coated 24-well plates (1 × 10^5 cells/well) and, one day later, each well was washed with 0.5 mL uptake buffer and incubated with 0.5 mL buffer containing various concentrations of the drugs. Uptake was started by the addition of [^3H]-dopamine, [^3H]-noradrenaline, or [^3H]-serotonin at a final concentration of 1 µM (specific activity 0.14 Ci/mmol) after 5 min of preincubation. After incubation for 2.5 min (SERT-cells: 5 min) at 25 °C, it was stopped by aspirating the uptake buffer and washing each well twice with 1 mL ice-cold buffer. Nonspecific uptake was determined in the presence of 10 µM mazindol (DAT- and NET-cells) or 10 µM clomipramine (SERT-cells). The radioactivity remaining in each well was determined by incubating with 0.4 mL 1% sodium dodecyl sulphate and transferring this solution into scintillation vials containing 3 mL of scintillation cocktail (Ultima Gold MV, Packard, Dovners Grove, IL, USA). The uptake buffer consisted of (mmol/L): 4 Tris–HCl; 6.25 4-(2-hydroxyethyl)-1-piperazineethanesulfonic acid (HEPES); 120 NaCl; 5 KCl; 1.2 CaCl2; 1.2 MgSO4; 5.6 D-glucose; 0.5 ascorbic acid; pH 7.1.

Test [2] has as its target T2, human dopamine transporter/SLC6A3 (DAT) (Homo sapiens, UniProt Q01959).
T2 construct: expressed in transfected cells; host or cells: HEK293
In words: Cellular uptake experiments: [3H]-dopamine reuptake inhibition in transporter-expressing HEK293 cells. To be noted: for IC50: cells stably expressing DAT, [3H]-dopamine 1 µM, screening cut-off 50 µM; for activity on DAT (reuptake inhibition), in words: at 50 µM. The method, then:
as §1, §2

Test [3] addresses T3, noradrenaline transporter/SLC6A2 (NET) (Homo sapiens, UniProt P23975).
T3 construct: expressed in transfected cells; host or cells: HEK293
Briefly: Cellular uptake experiments: [3H]-noradrenaline reuptake inhibition in transporter-expressing HEK293 cells. To be noted: for activity on NET (reuptake inhibition), in words: at 50 µM / tested concentration range. The method, then:
as §1, §2

Where [4] appears, read: read-out: Reuptake Inhibition (IC50 ± SE, µM) SERT.
[5] abbreviates: read-out: Reuptake Inhibition (IC50 ± SE, µM) DAT.
Where [6] appears, read: cells stably expressing NET, [3H]-noradrenaline 1 µM, screening cut-off 50 µM, read-out: Reuptake Inhibition (IC50 ± SE, µM) NET.
Setting [7] is: Reuptake Inhibition (IC50 ± SE, µM) SERT.
[8] abbreviates: Reuptake Inhibition (IC50 ± SE, µM) DAT.
Setting [9] is: Reuptake Inhibition (IC50 ± SE, µM) NET, cells stably expressing NET, [3H]-noradrenaline 1 µM, screening cut-off 50 µM.

Read-outs that look alike come from different tables or passages of the source.

T1 sequence (P31645 whole entry): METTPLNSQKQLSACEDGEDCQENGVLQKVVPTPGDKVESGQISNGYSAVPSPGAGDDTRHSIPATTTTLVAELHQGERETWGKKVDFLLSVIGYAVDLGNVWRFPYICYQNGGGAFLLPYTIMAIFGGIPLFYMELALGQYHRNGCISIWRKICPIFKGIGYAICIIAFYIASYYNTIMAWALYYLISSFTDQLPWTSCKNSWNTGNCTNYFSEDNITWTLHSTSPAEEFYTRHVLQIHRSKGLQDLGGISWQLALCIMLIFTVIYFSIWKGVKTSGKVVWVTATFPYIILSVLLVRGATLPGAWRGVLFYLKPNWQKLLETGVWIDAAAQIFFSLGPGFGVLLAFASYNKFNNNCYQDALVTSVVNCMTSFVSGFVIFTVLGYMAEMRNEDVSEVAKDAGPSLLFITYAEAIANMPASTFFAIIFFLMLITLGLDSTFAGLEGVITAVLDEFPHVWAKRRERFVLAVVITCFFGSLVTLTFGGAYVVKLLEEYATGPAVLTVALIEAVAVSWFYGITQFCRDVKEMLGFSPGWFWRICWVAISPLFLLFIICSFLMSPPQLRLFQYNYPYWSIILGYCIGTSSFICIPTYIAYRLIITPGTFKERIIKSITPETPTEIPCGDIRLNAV
T3 sequence (P23975 whole entry): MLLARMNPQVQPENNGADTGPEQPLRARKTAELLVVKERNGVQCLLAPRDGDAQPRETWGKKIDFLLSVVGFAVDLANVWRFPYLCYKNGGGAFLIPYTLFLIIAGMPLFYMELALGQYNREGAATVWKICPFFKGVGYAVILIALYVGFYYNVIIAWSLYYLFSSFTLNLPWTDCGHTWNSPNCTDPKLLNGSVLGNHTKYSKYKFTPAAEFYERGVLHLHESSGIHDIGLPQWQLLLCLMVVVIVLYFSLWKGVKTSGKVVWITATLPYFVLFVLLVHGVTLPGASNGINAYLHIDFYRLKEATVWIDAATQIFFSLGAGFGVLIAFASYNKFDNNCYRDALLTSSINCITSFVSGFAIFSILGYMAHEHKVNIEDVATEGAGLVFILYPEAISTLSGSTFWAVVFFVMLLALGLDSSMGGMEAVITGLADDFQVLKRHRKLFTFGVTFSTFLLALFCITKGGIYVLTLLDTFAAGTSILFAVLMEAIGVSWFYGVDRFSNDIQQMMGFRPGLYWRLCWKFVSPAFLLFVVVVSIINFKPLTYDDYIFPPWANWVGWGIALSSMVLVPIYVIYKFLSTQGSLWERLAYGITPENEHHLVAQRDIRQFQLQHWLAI
T2 sequence (Q01959 whole entry): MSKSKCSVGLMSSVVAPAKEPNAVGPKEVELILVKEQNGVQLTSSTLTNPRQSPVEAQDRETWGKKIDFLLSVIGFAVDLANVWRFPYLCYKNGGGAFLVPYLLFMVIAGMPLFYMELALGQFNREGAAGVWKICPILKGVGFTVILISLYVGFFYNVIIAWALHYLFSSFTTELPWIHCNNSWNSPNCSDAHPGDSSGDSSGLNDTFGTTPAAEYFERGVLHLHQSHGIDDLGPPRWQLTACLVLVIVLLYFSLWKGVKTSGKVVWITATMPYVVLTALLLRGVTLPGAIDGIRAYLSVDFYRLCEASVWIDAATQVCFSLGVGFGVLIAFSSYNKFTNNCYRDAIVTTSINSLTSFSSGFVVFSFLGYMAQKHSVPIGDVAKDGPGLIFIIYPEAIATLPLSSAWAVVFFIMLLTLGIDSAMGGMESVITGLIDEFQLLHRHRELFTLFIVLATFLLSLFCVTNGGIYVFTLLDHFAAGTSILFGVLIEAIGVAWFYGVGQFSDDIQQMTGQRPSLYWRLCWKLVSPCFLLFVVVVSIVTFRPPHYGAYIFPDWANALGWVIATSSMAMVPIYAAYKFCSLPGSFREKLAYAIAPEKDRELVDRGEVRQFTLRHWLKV

For `[O-][S@+](Cc1cccs1)[C@H](c1ccccc1)c1ccccc1F` [Compound 5a, (R,R)-2-((((2-fluorophenyl)(phenyl)methyl)sulfinyl)methyl)thiophene], the IC50 (usually the midpoint of a concentration-inhibition curve) in test [1] (setting [4]) was more than 50 µM; in test [2] (setting [5]), 32.8 ± 0.2 µM; in test [3] (setting [6]), more than 50 µM.

As for `[O-][S+](Cc1cccs1)C(c1ccccc1)c1cccc(F)c1` (stereo not drawn) [Compound 5b, 2-((((3-fluorophenyl)(phenyl)methyl)sulfinyl)methyl)thiophene], the results for the IC50 in test [1] (setting [4]), in test [2] (setting [5]) and in test [3] (setting [6]) were more than 50 µM, 3.2 ± 0.4 µM and more than 50 µM, respectively.

Take `[O-][S+](Cc1cccs1)C(c1ccccc1)c1ccc(F)cc1` (stereo not drawn) [Compound 5c, 2-((((4-fluorophenyl)(phenyl)methyl)sulfinyl)methyl)thiophene]: the IC50 in test [1] (setting [4]) was more than 50 µM; in test [2] (setting [5]) it was 7.8 ± 0.7 µM; in test [3] (setting [6]), more than 50 µM.

Turning to `[O-][S@+](Cc1cccs1)[C@H](c1ccccc1)c1ccccc1Cl` [Compound 5d, (R,R)-2-((((2-chlorophenyl)(phenyl)methyl)sulfinyl)methyl)thiophene], in test [1], the “activity on SERT (reuptake inhibition), in words” value was “did not achieve ≥50% of radioligand displacement”. Also, the IC50 in test [1] (setting [4]), in test [2] (setting [5]) and in test [3] (setting [6]) was more than 50 µM throughout. Moreover, in test [2], the “activity on DAT (reuptake inhibition), in words” value was “did not achieve ≥50% of radioligand displacement”. The “activity on NET (reuptake inhibition), in words” value in test [3] was “did not achieve ≥50% of radioligand displacement”.

As for `[O-][S@@+](Cc1cccs1)[C@H](c1ccccc1)c1cccc(Cl)c1` [Compound 5e, (S,R)-2-((((3-chlorophenyl)(phenyl)methyl)sulfinyl)methyl)thiophene], the IC50 in test [1] (setting [7]) is more than 50 µM; in test [2] (setting [8]), 3 ± 0.1 µM; in test [3] (setting [9]) it was more than 50 µM.

As to `[O-][S@@+](Cc1cccs1)[C@H](c1ccccc1)c1ccc(Cl)cc1` [Compound 5f, (S,R)-2-((((4-chlorophenyl)(phenyl)methyl)sulfinyl)methyl)thiophene], the IC50 was more than 50 µM in test [1] (setting [7]), 12 ± 1 µM in test [2] (setting [8]) and more than 50 µM in test [3] (setting [9]).

As to `[O-][S+](Cc1cccs1)C(c1ccccc1)c1ccccc1Br` (stereo not drawn) [Compound 5g, 2-((((2-bromophenyl)(phenyl)methyl)sulfinyl)methyl)thiophene], the IC50 in test [1] (setting [7]), in test [2] (setting [8]) and in test [3] (setting [9]) was more than 50 µM each time. Further, the “activity on SERT (reuptake inhibition), in words” value in test [1] is listed as “no effect”. Moreover, the “activity on DAT (reuptake inhibition), in words” value in test [2] is “no effect”. The “activity on NET (reuptake inhibition), in words” value in test [3] is “no effect”.

On to `[O-][S@@+](Cc1cccs1)[C@H](c1ccccc1)c1cccc(Br)c1` [Compound 5h, (S,R)-2-((((3-bromophenyl)(phenyl)methyl)sulfinyl)methyl)thiophene], for which the IC50 is more than 50 µM in test [1] (setting [7]), 1.8 ± 0.4 µM in test [2] (setting [8]) and more than 50 µM in test [3].

On to `[O-][S+](Cc1cccs1)C(c1ccccc1)c1ccccc1I` (stereo not drawn) [Compound 5i, 2-((((2-iodophenyl)(phenyl)methyl)sulfinyl)methyl)thiophene], for which the IC50 in test [1] (setting [7]), in test [2] (setting [8]) and in test [3] (setting [9]) was more than 50 µM in each case.

`[O-][S+](Cc1cccs1)C(c1ccccc1)c1cccc(I)c1` (stereo not drawn) [Compound 5j, 2-((((3-iodophenyl)(phenyl)methyl)sulfinyl)methyl)thiophene]: the IC50 was more than 50 µM in test [1] (setting [7]), 2.09 ± 0.21 µM in test [2] (setting [8]) and more than 50 µM in test [3] (setting [9]).

With `[O-][S@@+](Cc1cccs1)[C@H](c1ccccc1)c1ccc(I)cc1` [Compound 5k, (S,R)-2-((((4-iodophenyl)(phenyl)methyl)sulfinyl)methyl)thiophene], the IC50 in test [1] (setting [7]) was more than 50 µM; in test [2] (setting [8]) it was 5.1 ± 0.6 µM; in test [3] (setting [9]), more than 50 µM.

Regarding `Cc1ccccc1C(c1ccccc1)[S+]([O-])Cc1cccs1` (stereo not drawn) [Compound 5l, 2-(((phenyl(o-tolyl)methyl)sulfinyl)methyl)thiophene], the IC50 in test [1] (setting [4]) is more than 50 µM; in test [2] (setting [5]), 15.6 ± 1 µM; in test [3] (setting [6]), more than 50 µM.

As for `Cc1cccc([C@@H](c2ccccc2)[S@@+]([O-])Cc2cccs2)c1` [Compound 5m, (S,R)-2-(((phenyl(m-tolyl)methyl)sulfinyl)methyl)thiophene], the IC50 is more than 50 µM in test [1] (setting [7]), 2.2 ± 0.4 µM in test [2] (setting [8]) and more than 50 µM in test [3] (setting [9]).

With `Cc1ccc(C(c2ccccc2)[S+]([O-])Cc2cccs2)cc1` (stereo not drawn) [Compound 5n, 2-(((phenyl(p-tolyl)methyl)sulfinyl)methyl)thiophene], the results for the IC50 in test [1] (setting [4]), in test [2] (setting [5]) and in test [3] (setting [9]) were more than 50 µM, 3.97 ± 0.21 µM and more than 50 µM, respectively.

`[O-][S+](Cc1cccs1)C(c1ccccc1)c1ccccc1C(F)(F)F` (stereo not drawn) [Compound 5o, 2-(((phenyl(2-(trifluoromethyl)phenyl)methyl)sulfinyl)methyl)thiophene]: the values for the IC50 in test [1] (setting [7]), in test [2] (setting [8]) and in test [3] (setting [9]) were more than 50 µM, more than 50 µM and 25 ± 1 µM, respectively.

For `[O-][S+](Cc1cccs1)C(c1ccccc1)c1cccc(C(F)(F)F)c1` (stereo not drawn) [Compound 5p, 2-(((phenyl(3-(trifluoromethyl)phenyl)methyl)sulfinyl)methyl)thiophene], the IC50 in test [1] (setting [7]) was more than 50 µM; in test [2] (setting [8]) it was 5 ± 1 µM; in test [3] (setting [9]), more than 50 µM.

Regarding `[O-][S+](Cc1cccs1)C(c1ccccc1)c1ccc(C(F)(F)F)cc1` (stereo not drawn) [Compound 5q, 2-(((phenyl(4-(trifluoromethyl)phenyl)methyl)sulfinyl)methyl)thiophene], the IC50 in test [1] (setting [7]) was more than 50 µM; in test [2] (setting [8]) it was 17 ± 2 µM; in test [3] (setting [9]), more than 50 µM.

`COc1ccccc1[C@@H](c1ccccc1)[S@+]([O-])Cc1cccs1` [Compound 5r, (R,R)-2-((((2-methoxyphenyl)(phenyl)methyl)sulfinyl)methyl)thiophene]: the values for the IC50 in test [1] (setting [7]), in test [2] (setting [8]) and in test [3] (setting [9]) were more than 50 µM, 31 ± 8 µM and more than 50 µM, respectively.

Turning to `COc1cccc(C(c2ccccc2)[S+]([O-])Cc2cccs2)c1` (stereo not drawn) [Compound 5s, 2-((((3-methoxyphenyl)(phenyl)methyl)sulfinyl)methyl)thiophene], the IC50 in test [1] (setting [7]) was more than 50 µM; in test [2] (setting [8]), 2.89 ± 0.47 µM; in test [3] (setting [9]), more than 50 µM.

For `COc1ccc([C@H](c2ccccc2)[S@@+]([O-])Cc2cccs2)cc1` [Compound 5t, (S,S)-2-((((4-methoxyphenyl)(phenyl)methyl)sulfinyl)methyl)thiophene], the IC50 in test [1] (setting [7]) is more than 50 µM; in test [2] (setting [8]), 16 ± 6 µM; in test [3] (setting [9]) it was more than 50 µM.

As for `[O-][S+](Cc1cccs1)C(c1ccc(F)cc1)c1ccc(Cl)cc1` (stereo not drawn) [Compound 5u, 2-((((4-chlorophenyl)(4-fluorophenyl)methyl)sulfinyl)methyl)thiophene], the IC50 in test [1] (setting [7]) was more than 50 µM; in test [2] (setting [8]), 4.5 ± 1.8 µM; in test [3] (setting [9]), more than 50 µM.

Regarding `[O-][S@@+](Cc1cccs1)[C@@H](c1ccccc1)c1ccccc1F` [Compound 6a, (S,S)-2-((((2-fluorophenyl)(phenyl)methyl)sulfinyl)methyl)thiophene], the IC50 in test [1] (setting [4]) was more than 50 µM; in test [2] (setting [5]), 13.3 ± 1.6 µM; in test [3] (setting [6]) it was more than 50 µM.

As for `[O-][S+](Cc1cccs1)C(c1ccccc1)c1cccc(F)c1` (stereo not drawn) [Compound 6b, 2-((((3-fluorophenyl)(phenyl)methyl)sulfinyl)methyl)thiophene], the IC50 in test [1] (setting [4]) was more than 50 µM; in test [2] (setting [5]), 28 ± 7 µM; in test [3] (setting [6]), more than 50 µM.
